Among the data in ChEMBL document CHEMBL3046100, “Synthesis and anti-congestive heart failure activity of novel levosimendan analogues” (2011) are Activity values, retold here.

Format in all cases: functional, Artery
Assay [1] has as its system Rattus norvegicus. Put plainly: Anticongestive heart failure activity in Rattus norvegicus (rat) assessed as blood pressure at 50 mg/kg, intraduodenal measured at 25 min by tracheal intubation method (reference value: 79 +/- 4 mmHg).
Assay [2] concerns Rattus norvegicus. Put plainly: Anticongestive heart failure activity in Rattus norvegicus (rat) assessed as blood pressure at 50 mg/kg, intraduodenal measured at 15 min by tracheal intubation method (reference value: 86 +/- 3 mmHg).
Assay [3] concerns Rattus norvegicus. Put plainly: Anticongestive heart failure activity in Rattus norvegicus (rat) assessed as blood pressure at 50 mg/kg, intraduodenal measured at 5 min by tracheal intubation method (reference value: 97 +/- 3 mmHg).
Assay [4] concerns Rattus norvegicus. Put plainly: Anticongestive heart failure activity in Rattus norvegicus (rat) assessed as blood pressure at 50 mg/kg, intraduodenal measured at 30 min by tracheal intubation method (reference value: 88 +/- 3 mmHg).
Assay [5] has as its system Rattus norvegicus. Put plainly: Anticongestive heart failure activity in Rattus norvegicus (rat) assessed as blood pressure at 50 mg/kg, intraduodenal measured at 10 min by tracheal intubation method (reference value: 95 +/- 3 mmHg).
In assay [6] the test system is Rattus norvegicus. The experiment in a line: Anticongestive heart failure activity in Rattus norvegicus (rat) assessed as blood pressure at 50 mg/kg, intraduodenal measured at 20 min by tracheal intubation method (reference value: 81 +/- 4 mmHg).

For `C[C@@H]1CC(=O)NN=C1c1ccc(/N=C/c2ccc([N+](=O)[O-])cc2)cc1`, the Activity in assay [1] is 28 mmHg; in assay [2] it was 31 mmHg; in assay [3] it was 56 mmHg; in assay [4], 29 mmHg; in assay [5], 35 mmHg; in assay [6], 29 mmHg.

For the compound `C[C@@H]1CC(=O)NN=C1c1ccc(/N=C/c2cccc([N+](=O)[O-])c2)cc1`, the Activity in assay [1] was determined as 67 mmHg; in assay [2], 69 mmHg; in assay [3], 77 mmHg; in assay [4] it was 67 mmHg; in assay [5], 71 mmHg; in assay [6] it was 68 mmHg.

Regarding `C[C@@H]1CC(=O)NN=C1c1ccc(/N=C/c2ccc(O)c(O)c2)cc1`, the Activity in assay [1] is 53 mmHg; in assay [2] it was 53 mmHg; in assay [3], 77 mmHg; in assay [4] it was 53 mmHg; in assay [5] it was 63 mmHg; in assay [6], 53 mmHg.

On to `C[C@@H]1CC(=O)NN=C1c1ccc(/N=C/c2ccc(O)cc2)cc1`, for which the Activity is 29 mmHg in assay [1]; 32 mmHg in assay [2]; 80 mmHg in assay [3]; 30 mmHg in assay [4]; 44 mmHg in assay [5]; 30 mmHg in assay [6].

As for `C[C@@H]1CC(=O)NN=C1c1ccc(/N=C/c2ccccc2O)cc1`, the Activity in assay [1] turned out to be 26 mmHg; in assay [2], 28 mmHg; in assay [3] it was 55 mmHg; in assay [4], 26 mmHg; in assay [5], 28 mmHg; in assay [6], 26 mmHg.

Turning to `C[C@@H]1CC(=O)NN=C1c1ccc(/N=C/c2ccccc2Cl)cc1`, the Activity in assay [1] is 34 mmHg; in assay [2] it was 55 mmHg; in assay [3], 81 mmHg; in assay [4] it was 32 mmHg; in assay [5], 68 mmHg; in assay [6], 34 mmHg.

For `COc1cc(/C=N/c2ccc(C3=NNC(=O)C[C@H]3C)cc2)cc(OC)c1OC`, the Activity in assay [1] is 27 mmHg; in assay [2], 37 mmHg; in assay [3], 77 mmHg; in assay [4], 27 mmHg; in assay [5] it was 46 mmHg; in assay [6], 28 mmHg.

For `C[C@@H]1CC(=O)NN=C1c1ccc(/N=C/c2ccc(Cl)c(Cl)c2)cc1`, the Activity turned out to be 25 mmHg in assay [1]; 25 mmHg in assay [2]; 52 mmHg in assay [3]; 25 mmHg in assay [4]; 33 mmHg in assay [5]; 24 mmHg in assay [6].

As to `C[C@@H]1CC(=O)NN=C1c1ccc(/N=C/c2ccccn2)cc1`, the Activity in assay [1] amounted to 29 mmHg; in assay [2], 30 mmHg; in assay [3], 52 mmHg; in assay [4] it was 29 mmHg; in assay [5] it was 39 mmHg; in assay [6], 30 mmHg.

Turning to `C[C@@H]1CC(=O)NN=C1c1ccc(/N=C/c2ccco2)cc1`, the Activity in assay [1] worked out at 23 mmHg; in assay [2], 25 mmHg; in assay [3] it was 45 mmHg; in assay [4], 24 mmHg; in assay [5], 30 mmHg; in assay [6], 25 mmHg.

As for `C[C@@H]1CC(=O)NN=C1c1ccc(NN=C(C#N)C#N)cc1` [LEVOSIMENDAN], the Activity in assay [1] is given as 34 mmHg; in assay [2], 34 mmHg; in assay [3], 51 mmHg; in assay [4], 31 mmHg; in assay [5] it was 39 mmHg; in assay [6] it was 36 mmHg.
